Where a name gives a salt, the structure may show the parent alone.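 Step 1: Grow cells in 96-well plates. Step 2: Expose to compound for 48 hours at 5 concentrations. Step 3: Interpolate endpoints linearly; if unreached, use highest concentration. Abbreviation: GI50, concentration required for 50% inhibition of growth.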 Activity calls are given as the source filed them. Rule as the data show it: active = GI50 up to about 1.1 µM and inactive = higher.
Experiments:
Experiment in all cases: NCI tumour cell line growth inhibition, 48 h
[1] = system: SR
[2] = system: BT-549
[3] = system: EKVX
[4] = system: CAKI-1
[5] = system: MOLT-4
[6] = system: MDA-N
[7] = system: NCI-H522
[8] = system: M14
[9] = system: NCI-H226
[10] = system: 786-0
[11] = system: LOX IMVI
[12] = system: DU-145
[13] = system: A549
[14] = system: SF-268
[15] = system: UACC-257
[16] = system: HT-29
[17] = system: NCI/ADR-RES
[18] = system: COLO 205
[19] = system: NCI-H460

| SMILES | GI50 [1] | GI50 [2] | GI50 [3] | GI50 [4] | GI50 [5] | GI50 [6] | GI50 [7] | GI50 [8] | GI50 [9] | GI50 [10] | GI50 [11] | GI50 [12] | GI50 [13] | GI50 [14] | GI50 [15] | GI50 [16] | GI50 [17] | GI50 [18] | GI50 [19] |
| --- | --- | --- | --- | --- | --- | --- | --- | --- | --- | --- | --- | --- | --- | --- | --- | --- | --- | --- | --- |
| CCc1nnc(S)n1/N=C\c1ccc(-c2ccccc2[N+](=O)[O-])o1 | 16.9 µM (inactive) | 28.8 µM (inactive) | 21.1 µM (inactive) | 51.4 µM (inactive) | 19.4 µM (inactive) | 17.6 µM (inactive) | 31.6 µM (inactive) | 39.7 µM (inactive) | 12.1 µM (inactive) | 45.6 µM (inactive) | 28 µM (inactive) | 53.5 µM (inactive) | 42.9 µM (inactive) | 36.7 µM (inactive) | 76.4 µM (inactive) | 35.7 µM (inactive) | 26.3 µM (inactive) | 29.9 µM (inactive) |  |
| C1CSCC2(COC2)CSCCSCC2(COC2)CS1 | > 100 µM (inactive) | > 100 µM (inactive) | > 100 µM (inactive) |  | > 100 µM (inactive) | > 100 µM (inactive) | > 100 µM (inactive) | > 100 µM (inactive) |  | > 100 µM (inactive) | > 100 µM (inactive) | > 100 µM (inactive) | > 100 µM (inactive) | > 100 µM (inactive) | > 100 µM (inactive) | > 100 µM (inactive) | > 100 µM (inactive) | > 100 µM (inactive) | > 100 µM (inactive) |
| NCC(=O)Nc1ccc(S(=O)(=O)O)c2cc(S(=O)(=O)O)cc(S(=O)(=O)O)c12 | > 100 µM (inactive) | > 100 µM (inactive) | > 100 µM (inactive) | > 100 µM (inactive) | > 100 µM (inactive) | > 100 µM (inactive) | > 100 µM (inactive) | > 100 µM (inactive) | > 100 µM (inactive) | > 100 µM (inactive) | > 100 µM (inactive) | > 100 µM (inactive) | > 100 µM (inactive) | > 100 µM (inactive) | > 100 µM (inactive) | > 100 µM (inactive) | > 100 µM (inactive) | > 100 µM (inactive) |  |
| O=C(OCCN1CCCCCC1)C(c1ccsc1)C1CCCCC1 (stereo not given) [CETIEDIL CITRATE] | 26.6 µM (inactive) | 15.3 µM (inactive) | 17.1 µM (inactive) | 14.5 µM (inactive) | 21.4 µM (inactive) | 14 µM (inactive) |  | 17.3 µM (inactive) |  | 16.5 µM (inactive) | 17.1 µM (inactive) | 16.6 µM (inactive) | 19.4 µM (inactive) | 17.6 µM (inactive) | 18.8 µM (inactive) | 11.9 µM (inactive) | 15.7 µM (inactive) | 10.5 µM (inactive) | 16.2 µM (inactive) |
| COC(=O)C(Cc1ccccc1)OC(=O)C(N)CC(=O)O (stereo not given) | > 100 µM (inactive) | > 100 µM (inactive) | > 100 µM (inactive) | > 100 µM (inactive) | > 100 µM (inactive) | > 100 µM (inactive) | > 100 µM (inactive) | > 100 µM (inactive) | > 100 µM (inactive) | > 100 µM (inactive) |  | > 100 µM (inactive) | > 100 µM (inactive) | > 100 µM (inactive) | 32.4 µM (inactive) | > 100 µM (inactive) | > 100 µM (inactive) | > 100 µM (inactive) | > 100 µM (inactive) |
| COc1cc(C(c2ccc3c(c2)OCO3)C2SCCCS2)cc(OC)c1OC (stereo not given) | 0.332 µM (active) | 8.79 µM (inactive) | 2.79 µM (inactive) | 2.67 µM (inactive) | 2.87 µM (inactive) | 0.372 µM (active) | 2.11 µM (inactive) | 3.6 µM (inactive) | 2.7 µM (inactive) | 2.74 µM (inactive) |  | 3.03 µM (inactive) | 4.22 µM (inactive) | 6.21 µM (inactive) | 6.08 µM (inactive) | 1.89 µM (inactive) | 2.15 µM (inactive) | 1.63 µM (inactive) | 1.58 µM (inactive) |
| c1ccc2c(-c3ccnc(-c4c[nH]c5ccccc45)n3)c[nH]c2c1 | 4.25 µM (inactive) | > 100 µM (inactive) | 6.4 µM (inactive) | 4.25 µM (inactive) | 1.87 µM (inactive) | 2.78 µM (inactive) |  | 1.99 µM (inactive) |  | 2.12 µM (inactive) | 2.82 µM (inactive) | 12.4 µM (inactive) | 3.27 µM (inactive) | 10.6 µM (inactive) | 4.34 µM (inactive) | 2.7 µM (inactive) | 16.4 µM (inactive) | 5.45 µM (inactive) | 2.87 µM (inactive) |
| O=C1/C(=C/c2cccc([N+](=O)[O-])c2)N=C(c2ccccc2)N1c1ccc2c(c1)Sc1cc(N3C(=O)/C(=C/c4cccc([N+](=O)[O-])c4)N=C3c3ccccc3)ccc1N2 |  | 23 µM (inactive) | 25.4 µM (inactive) | 22.4 µM (inactive) | 36.9 µM (inactive) | 19.3 µM (inactive) | 19.1 µM (inactive) | 32.9 µM (inactive) |  | 21 µM (inactive) | 27 µM (inactive) | 36.7 µM (inactive) | 53 µM (inactive) | 20.1 µM (inactive) | 18.4 µM (inactive) | 91.8 µM (inactive) | 34.1 µM (inactive) | 40.9 µM (inactive) | 41.9 µM (inactive) |
| Cn1c(=O)c2c(nc3n(CC(O)CCl)c(=O)ccn23)n(C)c1=O (stereo not given) |  | > 100 µM (inactive) | 42.9 µM (inactive) | 17 µM (inactive) | 6.17 µM (inactive) | 35.2 µM (inactive) | 16.6 µM (inactive) | 52.7 µM (inactive) | 22.6 µM (inactive) | 26.4 µM (inactive) | 29.1 µM (inactive) | 28.8 µM (inactive) | 64 µM (inactive) | 20.5 µM (inactive) | 76.6 µM (inactive) | 30.8 µM (inactive) | 19.3 µM (inactive) | 36.8 µM (inactive) | 29.9 µM (inactive) |
| O=P(O)(O)OC1O[C@H](CO)[C@H](O)[C@H](O)[C@H]1O (stereo not given in full) | > 100 µM (inactive) | > 100 µM (inactive) | > 100 µM (inactive) | > 100 µM (inactive) |  | > 100 µM (inactive) | > 100 µM (inactive) | > 100 µM (inactive) |  | > 100 µM (inactive) | > 100 µM (inactive) | > 100 µM (inactive) | > 100 µM (inactive) | > 100 µM (inactive) | > 100 µM (inactive) | > 100 µM (inactive) | > 100 µM (inactive) |  | > 100 µM (inactive) |
| CC1(C)O[C@@H](CP(c2ccccc2)c2ccccc2)[C@H](CP(c2ccccc2)c2ccccc2)O1 |  | 2.96 µM (inactive) | 6.38 µM (inactive) | 21 µM (inactive) | 2.69 µM (inactive) | 3.05 µM (inactive) | 2.38 µM (inactive) | 5.94 µM (inactive) | 6.52 µM (inactive) | 6.15 µM (inactive) | 1.82 µM (inactive) | 11.7 µM (inactive) | 2.93 µM (inactive) | 5.96 µM (inactive) | 6.98 µM (inactive) | 0.675 µM (active) | 12.4 µM (inactive) | 0.632 µM (active) | 4.03 µM (inactive) |
| Cc1ccc(S(=O)(=O)NC(=O)NC(CC(N)=O)C(=O)O)cc1 (stereo not given) | > 100 µM (inactive) | > 100 µM (inactive) |  |  | > 100 µM (inactive) | > 100 µM (inactive) | > 100 µM (inactive) | > 100 µM (inactive) |  | > 100 µM (inactive) | > 100 µM (inactive) | > 100 µM (inactive) | > 100 µM (inactive) | > 100 µM (inactive) | > 100 µM (inactive) | > 100 µM (inactive) | > 100 µM (inactive) | > 100 µM (inactive) | > 100 µM (inactive) |
| CCOC(=O)c1cc(Br)c(-c2onc(C)c2Br)[nH]1 | > 100 µM (inactive) | 43 µM (inactive) | 27.9 µM (inactive) | 45.7 µM (inactive) | > 100 µM (inactive) | > 100 µM (inactive) |  | 66.2 µM (inactive) | 30.1 µM (inactive) | 21.6 µM (inactive) | 98.6 µM (inactive) | > 100 µM (inactive) | 56.1 µM (inactive) | 41.4 µM (inactive) | 93.5 µM (inactive) | > 100 µM (inactive) | 40.6 µM (inactive) | > 100 µM (inactive) | 65.6 µM (inactive) |
| O=C(O)/C(Cc1ccc([N+](=O)[O-])cc1)=N\O |  | 76.2 µM (inactive) | 39.1 µM (inactive) | > 100 µM (inactive) |  | > 100 µM (inactive) | 29.6 µM (inactive) | > 100 µM (inactive) | > 100 µM (inactive) | > 100 µM (inactive) | > 100 µM (inactive) | > 100 µM (inactive) | > 100 µM (inactive) | > 100 µM (inactive) | > 100 µM (inactive) | > 100 µM (inactive) | > 100 µM (inactive) | > 100 µM (inactive) | > 100 µM (inactive) |
| CN(Cc1cnc2nc(N)nc(N)c2n1)c1ccc(C(=O)NC(CO)CCCO)cc1 (stereo not given) | > 100 µM (inactive) | > 100 µM (inactive) | > 100 µM (inactive) | > 100 µM (inactive) | > 100 µM (inactive) | > 100 µM (inactive) |  | > 100 µM (inactive) | > 100 µM (inactive) | > 100 µM (inactive) | > 100 µM (inactive) | > 100 µM (inactive) |  | > 100 µM (inactive) | > 100 µM (inactive) | > 100 µM (inactive) | > 100 µM (inactive) | > 100 µM (inactive) | > 100 µM (inactive) |
